Usually IC50 stands for the concentration needed to halve the response being measured. Low readings indicate greater potency in that assay, high ones weaker potency in that assay.

For the assay, the target named is Hypoxia inducible factors; HIF-1-alpha, HIF-2-alpha (Homo sapiens, UniProt Q16665+Q99814). Briefly: Inhibition of hypoxia-induced HIF1 transcriptional activity in human HeLa cells measured after 12 hrs by luciferase reporter gene assay. The format is cell-based. (In a reporter assay the amount or activity of a reporter protein is the signal.)

SMILES strings stand for the structures.

On to `Cc1ccc(-c2nc(-c3ccc(CO)o3)n3ccccc23)cc1`, for which the IC50 is 39 µM. The molecule `OCc1ccc(-c2nc(-c3ccccc3CO)c3ccccn23)o1` returned an IC50 of 6.5 µM. The molecule `OCc1ccc(-c2nc(-c3cc(C(F)(F)F)cc(C(F)(F)F)c3)c3ccccn23)o1` had an IC50 of 25 µM.

On to `OCc1ccc(-c2nc(-c3ccccc3)c3ccccn23)s1`, for which the IC50 stood at 3.7 µM.

As to `OCc1ccc(-c2nc(-c3ccccc3)c3ccccn23)o1`, the IC50 was found to be 70 µM. Compared with the last molecule, the IC50 is about 19-fold higher.

The molecule `COc1ccccc1-c1nc(-c2ccc(CO)o2)n2ccccc12` showed an IC50 of 75 µM. This IC50 and that of the molecule before are within 1.5-fold of each other. `N#Cc1ccc(-c2nc(-c3ccc(CO)o3)n3ccccc23)cc1` registered an IC50 of 7.4 µM.

`OCc1ccc(-c2nc(-c3ccc(C(F)(F)F)cc3)c3ccccn23)o1` registered an IC50 of 17 µM. For the molecule `OCc1ccc(-c2nc(-c3ccccc3CO)c3ccccn23)s1`, the IC50 is 9.4 µM. With `OCc1ccc(-c2nc(-c3ccncc3)c3ccccn23)s1`, the IC50 was 9.1 µM. For `COc1ccc(-c2nc(-c3ccc(CO)o3)n3ccccc23)cc1`, the IC50 was found to be 61 µM. This IC50 lies about 6.7-fold higher than the previous one. With `OCc1ccc(-c2nc(Cc3ccccc3)c3ccccn23)o1`, the IC50 came to 56 µM.

These data come from ChEMBL document CHEMBL3868622, “Development of 1-aryl-3-furanyl/thienyl-imidazopyridine templates for inhibitors against hypoxia inducible factor (HIF)-1 transcriptional activity” (Bioorg Med Chem Lett, 2016).
